Reference: publication PMC6113202
Values belong to the molecule of their own block, whether it stands above or below them.

Legend:
[1] = system: pDINP1 (DNA, duplex) TTATAGAACTTGGGGGAACATGTTTACCAA/TTGGTAAACATGTTCCCCCAAGTTCTATAA; test: fluorescence turn-on heat map; conditions: KCl 150 mM in p53 buffer (80% v/v); NaCl 50 mM in DNA buffer (15% v/v); 4 μM dye, 250 nM DNA; NaPi pH 7.2, DTT, Tris-HCl, 5% DMSO; room temperature
[2] = system: IGF-BP3 (DNA, duplex) CTAGAAAACAAGCCACCAACATGCTTGCATG/CATGCAAGCATGTTGGTGGCTTGTTTTCTAG; test: fluorescence turn-on heat map; conditions: KCl 150 mM in p53 buffer (80% v/v); NaCl 50 mM in DNA buffer (15% v/v); 4 μM dye, 250 nM DNA; NaPi pH 7.2, DTT, Tris-HCl, 5% DMSO; room temperature
[3] = system: Scram (DNA, duplex) GTCGTTCTGATCCAGGTGATGTAGTCGACG/CGTCGACTACATCACCTGGATCAGAACGAC; test: fluorescence turn-on; conditions: KCl 150 mM in p53 buffer (80% v/v); NaCl 50 mM in DNA buffer (15% v/v); NaPi pH 7.2, DTT, Tris-HCl, 5% DMSO; room temperature; dye 100 nM
[4] = system: p21 (DNA, duplex) TAGAGGAAGAAGACTGGGCATGTCTGGGCA/TGCCCAGACATGCCCAGTCTTCTTCCTCTA; test: fluorescent intercalator displacement by p53; conditions: KCl 150 mM in p53 buffer (80% v/v); NaCl 50 mM in DNA buffer (15% v/v); 1 μM DNA, 10 μM dye; dye displaced by p53; NaPi pH 7.2, DTT, Tris-HCl, 5% DMSO
[5] = system: RGC (DNA, duplex) CACATGCCTTGCCTGGACTTGCCT/AGGCAAGTCCAGGCAAGGCATGTG; test: fluorescent intercalator displacement by p53; conditions: KCl 150 mM in p53 buffer (80% v/v); NaCl 50 mM in DNA buffer (15% v/v); 1 μM DNA, 10 μM dye; dye displaced by p53; NaPi pH 7.2, DTT, Tris-HCl, 5% DMSO
[6] = system: hairpin p21 RE (DNA, hairpin) GAAGAAGACTGGGCATGTCTAAAAAAGACATGCCCAGTCTTCTTC; test: fluorescence titration; conditions: KCl 150 mM in p53 buffer (80% v/v), NaCl 50 mM in DNA buffer (15% v/v), per base pair, approximate, NaPi pH 7.2, DTT, Tris-HCl, room temperature, dye 100 nM
p53-WT [7] = molecular target: T1, p53-WT (UniProt P04637 94-360); test: fluorescent intercalator displacement; AO-R; strongest displacement of panel; 1 uM DNA, 10 uM dye; 5% DMSO, 80% p53 buffer (25 mM NaPi pH 7.2, 150 mM KCl, 4 mM DTT), 15% DNA buffer (10 mM Tris-HCl pH 8.0, 50 mM NaCl); room temperature (stated for rotor-DNA mixtures); conditions: protein: recombinant; tags: N-terminal His6; chain copies: 4; blunt
p53-WT [8] = molecular target: T1, p53-WT; test: fluorescent intercalator displacement; AO-R; p53 concentration-dependent; 1 uM DNA, 10 uM dye; 5% DMSO, 80% p53 buffer (25 mM NaPi pH 7.2, 150 mM KCl, 4 mM DTT), 15% DNA buffer (10 mM Tris-HCl pH 8.0, 50 mM NaCl); room temperature (stated for rotor-DNA mixtures); conditions: protein: recombinant; tags: N-terminal His6; chain copies: 4; blunt
p53-WT [9] = molecular target: T1, p53-WT; test: fluorescent intercalator displacement; AO-R; almost no displacement; 1 uM DNA, 10 uM dye; 5% DMSO, 80% p53 buffer (25 mM NaPi pH 7.2, 150 mM KCl, 4 mM DTT), 15% DNA buffer (10 mM Tris-HCl pH 8.0, 50 mM NaCl); room temperature (stated for rotor-DNA mixtures); conditions: protein: recombinant; tags: N-terminal His6; chain copies: 4; blunt

T1 sequence (P04637 94-360): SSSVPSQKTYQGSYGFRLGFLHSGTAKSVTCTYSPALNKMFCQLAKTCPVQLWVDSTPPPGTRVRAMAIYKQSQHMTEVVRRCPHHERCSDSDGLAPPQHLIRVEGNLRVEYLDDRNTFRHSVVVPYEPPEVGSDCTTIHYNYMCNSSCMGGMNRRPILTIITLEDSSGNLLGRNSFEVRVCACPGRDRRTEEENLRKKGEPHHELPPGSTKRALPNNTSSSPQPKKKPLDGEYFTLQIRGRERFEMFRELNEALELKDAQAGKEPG

Molecule: C[n+]1ccc(/C=C/c2ccc(-n3c4ccc(/C=C/c5cc[n+](C)cc5)cc4c4cc(/C=C/c5cc[n+](C)cc5)ccc43)cc2)cc1
binding [1]: yes | binding [2]: yes

Molecule: CN(C)c1ccc2cc3ccc(N(C)C)c(/C=C(\C#N)C(=O)O)c3nc2c1
binding [3]: yes | binding [4]: yes | binding [5]: yes | Kd [6]: 4.8 ± 0.8 µM

B1: Con-A (dsDNA)
DNA 1: GGGCATGTCCGGGCATGTCC
DNA 2: GGACATGCCCGGACATGCCC
binding result (p53-WT [7]): binds

B2: p21 RE (dsDNA)
DNA 1: TAGAGGAAGAAGACTGGGCATGTCTGGGCA
DNA 2: TGCCCAGACATGCCCAGTCTTCTTCCTCTA
binding result (p53-WT [8]): binds

B3: Scram (dsDNA)
DNA 1: GTCGTTCTGATCCAGGTGATGTAGTCGACG
DNA 2: CGTCGACTACATCACCTGGATCAGAACGAC
binding result (p53-WT [9]): no binding

B4: RGC RE (dsDNA)
DNA 1: CACATGCCTTGCCTGGACTTGCCT
DNA 2: AGGCAAGTCCAGGCAAGGCATGTG
binding result (p53-WT [8]): binds

Next, values leading:

binding [3]: yes
Molecule: CC[n+]1c(-c2ccccc2)c2cc(N)ccc2c2ccc(N)cc21

binding [3]: yes
Molecule: CN1C(=Cc2cc[n+](CCCN)c3ccccc23)Sc2ccccc21

binding [3]: yes
Molecule: CN1C(=Cc2cc[n+](C)c3ccccc23)Sc2ccccc21

binding [3]: yes | Kd [6]: 12.5 ± 1.0 µM
Molecule: CN(C)c1ccc2cc3ccc(N(C)C)cc3nc2c1

binding [3]: yes | binding [1]: yes | binding [2]: yes
Molecule: C[n+]1ccc(/C=C/c2ccc3c(c2)c2cc(/C=C/c4cc[n+](C)cc4)ccc2n3-c2ccccc2)cc1
